Where a name gives a salt, the structure may show the parent alone.
What was measured:
Experiment in all cases: In vivo antibacterial test (animal protection test, septicemia mouse model)
[1] = system: T-R (tetracycline-resistant Neisseria gonorrhoeae); details: sc, strain T-R, ICR mice
Experimental: (§1) The stability test samples in test example 1 were sampled at 0th month and subjected to in vivo antibacterial test; and the stability test samples were sampled at 30th month again, and subjected to in vivo antibacterial test. The in vivo antibacterial tests were performed according to the following method.
(§2) Test Samples: Compositions I to VIII, Sterile Powder for Injection I, Sterile Powder for Injection II, Sterile Powder for Injection IV, Lyophilized Powder for Injection I, Lyophilized Powder for Injection II, Lyophilized Powder for Injection A, Sterile Powder for Injection A and Sterile Powder for Injection B, all of which were obtained from the test example 1 at 0th and 30th month; and control drugs: ceftriaxone sodium, levofloxacin hydrochloride, azithromycin, doxycycline hydrochloride and spectinomycin hydrochloride, wherein, a batch of the control drugs were purchased at 0th month of the stability test so as to match with the test samples at 0th month, and another batch of control drugs were purchased at 30th month of the stability test so as to match with the test samples at 30th month, and the time when the two batches were purchased was within one month from the date of their production.
(§3) Animals: ICR mice weighed 18-22 g, half male and half female.
(§4) Strains: ATCC700603 (Klebsiella pneumoniae), ATCC43069 (Neisseria gonorrhoeae), Q-R (quinolone-resistant Neisseria gonorrhoeae), T-R (tetracycline-resistant Neisseria gonorrhoeae), PP-R (β-lactam-resistant Neisseria gonorrhoeae), MAC-R (macrolide-resistant Neisseria gonorrhoeae), SPE-R (spectinomycin-resistant Neisseria gonorrhoeae) and QS-R (ceftriaxone-resistant Neisseria gonorrhoeae), wherein, ATCC700603, and ATCC43069 were purchased from ATCC; QS-R was prepared by in vitro inducing Neisseria gonorrhoeae, which was sensitive to ceftriaxone, with a subinhibitory concentration of ceftriaxone, culturing at 36° C., 5% CO2, passaging once every 24 hours, and then transferring to a higher concentration of ceftriaxone on GC medium until the strain was resistant to ceftriaxone; and other strains were clinical isolates.
(§5) Aseptic thoracotomy was performed timely on the mice died of infection, the heart blood or intracavity effusion was taken and evenly coated on corresponding agar plates, and incubated for 18 hours at 37° C. […] The obtained strain was used to infect mice again.
(§6) After infection, the number of dead mice was recorded. The minimum dose causing 100% death of mice was 1 MLD, and was used as the dose in animal protection experiments. The bacterial concentration, which was one log lower than 1 MLD and infected the animals without mortality, was named 0.1 MLD. In experiments, a bacteria concentration of 1 MLD was used as the positive control for the infection experiments; and a bacteria concentration of 0.1 MLD was used as the negative control for the infection. In both positive and negative control groups, only the bacteria were administrated and no antibiotic treatment was provided. The mortality of the positive group should be 70% or more, and the mortality of the negative group should be 30% or less.
(§7) When the administration dosage was investigated first, there may be relatively great differences between the dose concentrations of the groups. When the range of the administration dosage was determined, it may be further investigated by reducing the differences until the suitable administration dosage (that is, for the group administrated with the highest concentration, 70% or more infected animals survived; and for the group administrated with the lowest concentration, no less than 70% of infected animals died) was found.

[2] = system: QS-R (ceftriaxone-resistant Neisseria gonorrhoeae); details: sc, strain QS-R, ICR mice
Experimental: as §1, §2, §3, §4, §5, §6, §7

[3] = system: Q-R (quinolone-resistant Neisseria gonorrhoeae); details: sc, strain Q-R, ICR mice
Experimental: as §1, §2, §3, §4, §5, §6, §7

[4] = system: PP-R (β-lactam-resistant Neisseria gonorrhoeae); details: sc, strain PP-R, ICR mice
Experimental: as §1, §2, §3, §4, §5, §6, §7

[5] = system: SPE-R (spectinomycin-resistant Neisseria gonorrhoeae); details: sc, strain SPE-R, ICR mice
Experimental: as §1, §2, §3, §4, §5, §6, §7

[6] = system: ATCC43069 (Neisseria gonorrhoeae); details: ATCC43069, sc, ICR mice
Experimental: as §1, §2, §3, §4, §5, §6, §7

[7] = system: MAC-R (macrolide-resistant Neisseria gonorrhoeae); details: sc, strain MAC-R, ICR mice
Experimental: as §1, §2, §3, §4, §5, §6, §7

[8] = system: ATCC700603 (Klebsiella pneumoniae); details: ATCC700603, sc, ICR mice
Experimental: as §1, §2, §3, §4, §5, §6, §7

[9] = samples at 0th month of the stability test, subcutaneous immediately and after 6 hours, 7 days observation
[10] = samples at 30th month of the stability test (control drugs: batch purchased at 30th month), subcutaneous
[11] = strain ATCC 43069, samples at 0th month of the stability test, subcutaneous immediately and after 6 hours, 7 days observation
[12] = strain ATCC 43069, samples at 30th month of the stability test (control drugs: batch purchased at 30th month), subcutaneous

Compound | ED50 [1, 9] [mg/kg] | ED50 [1, 10] [mg/kg] | ED50 [2, 9] [mg/kg] | ED50 [2, 10] [mg/kg] | ED50 [3, 9] [mg/kg] | ED50 [3, 10] [mg/kg] | ED50 [4, 9] [mg/kg] | ED50 [4, 10] [mg/kg] | ED50 [5, 9] [mg/kg] | ED50 [5, 10] [mg/kg] | ED50 [6, 11] [mg/kg] | ED50 [6, 12] [mg/kg] | ED50 [7, 9] [mg/kg] | ED50 [7, 10] [mg/kg] | ED50 ([8]; strain ATCC 700603, samples at 0th month of the stability test, subcutaneous immediately and after 6 hours, 7 days observation) [mg/kg] | ED50 ([8]; strain ATCC 700603, samples at 30th month of the stability test (control drugs: batch purchased at 30th month), subcutaneous) [mg/kg]
C[C@H]1c2cccc(O)c2C(=O)C2=C(O)[C@]3(O)C(=O)C(C(N)=O)=C(O)[C@@H](N(C)C)[C@@H]3[C@@H](O)[C@@H]21 [Doxycycline Hydrochloride, doxycycline hydrochloride] | 456 | 432 | 105 | 99 | 55 | 51 | 52 | 47 | 52 | 51 | 37 | 32 | 58 | 62 | – | –
CC[C@H]1OC(=O)[C@H](C)[C@@H](O[C@H]2C[C@@](C)(OC)[C@@H](O)[C@H](C)O2)[C@H](C)[C@@H](O[C@@H]2O[C@H](C)C[C@H](N(C)C)[C@H]2O)[C@](C)(O)C[C@@H](C)CN(C)[C@H](C)[C@@H](O)[C@]1(C)O [Azithromycin, azithromycin] | 62 | 59 | 63 | 69 | 43 | 40 | 49 | 55 | 59 | 65 | 24 | 31 | 487 | 497 | – | –
CN[C@@H]1[C@H](O)[C@H](NC)[C@H]2O[C@@]3(O)C(=O)C[C@@H](C)O[C@H]3O[C@@H]2[C@H]1O [Spectinomycin Hydrochloride, spectinomycin hydrochloride] | 61 | 68 | 41 | 56 | 40 | 42 | 56 | 67 | 621 | 571 | 19 | 22 | 38 | 42 | – | –
CO/N=C(\C(=O)N[C@@H]1C(=O)N2C(C(=O)O)=C(CSc3nc(=O)c(=O)[nH]n3C)CS[C@H]12)c1csc(N)n1 [Ceftriaxone Sodium, ceftriaxone sodium] | 46 | 57 | 337 | 373 | 31 | 30 | 208 | 224 | 52 | 66 | 16 | 21 | 34 | 37 | 35 | 37
C[C@H]1COc2c(N3CCN(C)CC3)c(F)cc3c(=O)c(C(=O)O)cn1c23 [Levofloxacin Hydrochloride, levofloxacin hydrochloride] | 48 | 43 | 72 | 82 | 573 | 564 | 37 | 42 | 67 | 72 | 25 | 30 | 36 | 41 | – | –
